“Also recorded” adds a separate entry of the source. Where a SMILES comes first, the peptide text is derived from it. The star is where a group is joined. Cbz = O=C(OCc1ccccc1)*
Experiments:
[1] = system: nNOS protein; experiment: nNOS protein in human atrial tissue in AF after inhibition of the proteosomal system or autophagy; format: cell-based; details: human RA, MG132 5 μmol/L, bafilomycin 25 nmol/L
Method: In the presence of AF, ubiquitination of nNOS protein is increased in human atrial tissue as shown by immunoprecipitation. Protein load of AF samples was increased to match the nNOS content to that seen in SR; n=6 (a). […] All abbreviations are as defined in FIG. 1.
In the skeletal muscle, nNOS protein stability is determined by the enzyme's anchoring to the dystrophin-syntrophin complex. We found a reduction in dystrophin (FIG. 4c, 4d, 4f) and dystrophin-associated proteins (e.g., caveolin-3 and α1-syntrophin, 4c, 4e), and a disruption of the dystrophin-nNOS complex in AF (FIG. 4a, 4b). In humans, atrial nNOS and dystrophin were strongly correlated (FIG. 4g), in keeping with the notion that disruption of the dystrophin-syntrophin complex promotes ubiquitin-dependent nNOS degradation in AF.

[2] = system: dystrophin (DYS) protein; experiment: Dystrophin protein content (immunoblot) in transfected human atrial myocytes; format: cell-based
[3] = system: nNOS protein; experiment: nNOS protein content (immunoblot) in transfected human atrial myocytes; format: cell-based
From the text: (§1) RQ—relative quantification, DYS—dystrophin; all other abbreviations are as defined in FIG. 1.
(§2) By contrast, treatment with miR31 mimic has no effect on the DYS mRNA in either SR (n=12) or AF (n=10). *P<0.05, **P<0.01 ***P<0.001 vs controls in SR and #P<0.05, ##P[…], ###P<0.001 vs negative control (NC) using 1-way ANOVA with Bonferroni correction. Dystrophin and nNOS gene expression were normalized to GAPDH.
(§3) 12g-m. […] By contrast, miR31 mimic has no effect on the decay of the DYS mRNA (h).

[4] = system: DYS mRNA; experiment: DYS mRNA (gene expression) in transfected human atrial myocytes; format: cell-based; details: for DYS mRNA (expression): SR myocytes, mimic 10 nM, 72 hours (FIG. 10)
From the text: as §2, §3

[5] = system: nNOS mRNA; experiment: nNOS mRNA (gene expression) in transfected human atrial myocytes; format: cell-based
From the text: as §2, §3

[6] = system: nNOS mRNA on the RISC complex; experiment: Ribonucleoprotein immunoprecipitation with Ago2 (RISC), nNOS mRNA; format: cell-based, human; details: RA myocytes from AF patients; TSB 20 nM, 48-72 hours; normalized to miR31 in RISC
Method: 12a-b. (a) Immunoprecipitation of the RNA-induced silencing effector complex (RISC) protein, Argonaut 2 (Ago2) in RAA myocytes isolated from patients with AF transiently (48-72 hours) transfected with 20 nM of an locked nucleic acids (LNA)-based miR31 target site blocker (TSB, Exiqon) or with corresponding scrambled control (scr, 20 nM, Exiqon). Further details on the sequence of the TSB and scr control, also see FIG. 13). Molecular weight is shown in kilodalton (kDa); Rb IgG—rabbit immunoglobulin G (as negative control); IP—immunoprecipitation, IB—immunoblotting. (b) miR31 expression is unchanged in Ago2 immunoprecipitates from RAA human myocytes.
12c-f. (c) Sequence of the mature human miR31 (hsa-miR31), 23-nucleotide region of the human DYS-3′UTR, the miR31 hairpin inhibitor (anti-miR31, miRIDIAN, Dharmacon) and the 18-nucleotide-long locked nucleic acids (LNA)-based Target Site Blocker (TSB) covering the miR31-binding site on the DYS-3′UTR (TSB_DYS). (d) Sequences of the mature hsa-miR-31, 23-nucleotide region of the human nNOS-3′UTR, the anti-miR31 (miRIDIAN, Dharmacon) and the 18-nucleotide-long TSB covering the miR31-binding site on the nNOS 3′UTR (TSB_nNOS). The miR-31 seed sequence is in grey. […]
(§4) The corresponding mRNA stability was assessed in the presence of a miR-31 mimic (10 nM) in SR myocytes treated with the transcription inhibitor, actinomycin D (5 μg/ml).

[7] = system: human RA myocytes; experiment: Action potential duration (APD) and APD rate adaptation in isolated human right atrial myocytes; format: cell-based
From the text: All abbreviations are as defined in FIG. 1.
9b. […] Representative AP traces in RA myocytes from patients in SR exposed to 2 doses of 4-AP in the presence or absence of nNOS inhibition with SMTC.
A shorter APD leads to reduced atrial refractoriness and promote AF sustainability. […] These findings indicate that loss of myocardial nNOS signalling is sufficient to produce an atrial electrical substrate that increases both the inducibility and maintenance of AF.

[8] = system: miR-31; experiment: miR-31 expression in transfected isolated human atrial myocytes; format: cell-based; details: for miR31 levels: RAA myocytes; for miR-31 expression: 20 nM, 48-72 hours
From the text: as §1
8a. […] Data are expressed as fold change to the controls in SR.
as §2
We hypothesised that a microRNA-mediated translational repression of dystrophin in AF may account for the loss of myocardial nNOS and constitute a novel mechanism underlying AF-induced electrical remodelling.

[9] = system: human nNOS 3′UTR; experiment: GFP reporter assay in HEK293 cells, nNOS 3′UTR constructs; format: cell-based; details: HEK293, co-transfected 48 hours, mimic 10 nM
Method: 11a. Predicted conserved (site 1) and poorly conserved (sites 2, 3, 4 and 5) miR31-5p binding sites on the human nNOS 3′UTR.
11b. HEK293 cells were co-transfected (48 hours) with reporter constructs containing 2 fragments (˜500 bp) of the nNOS 3′UTR region containing the mir31 binding putative sites (Part1, site 1 & 2 and Part2, sites 3, 4 & 5) and a miR31 mimic (10 nM, miRIDIAN, Dharmacon). […] Further analysis of Part 2, identified site 5 as the functional mir31 site on the nNOS 3′ UTR.

[10] = system: DYS 3′UTR; experiment: GFP reporter assay in HEK293 cells, DYS 3′UTR construct; format: cell-based, human; details: HEK293, co-transfected 48 hours
Method: 11c. HEK293 cells were co-transfected (48 hours) with reporter constructs containing the DYS 3′UTR region containing the mir31 binding putative site. […] Reporter assays were performed in triplicates and are representative of at least 3 independent experiments. ###P<0.001 vs vehicle, repeated-measure ANOVA with Bonferroni correction.

[11] = system: nNOS mRNA; experiment: nNOS mRNA stability in the presence of actinomycin D; format: cell-based, human; details: SR myocytes; actinomycin D 5 μg/ml; mimic 10 nM
Method: as §3, §4

[12] = system: DYS mRNA; experiment: DYS mRNA stability in the presence of actinomycin D; format: cell-based, human; details: SR myocytes; actinomycin D 5 μg/ml; mimic 10 nM; listed as miR31 mimic
Method: as §3, §4

[13] = myocytes from patients with AF, 20 nM, 48-72 hours
[14] = myocytes from patients with AF, 20 nM, 48-72 hours, listed as nNOS-TSB
[15] = SR myocytes, mimic 10 nM, 72 hours
[16] = SR myocytes, mimic 10 nM, 72 hours (FIG. 10), listed as miR31 mimic
[17] = SR myocytes, mimic 10 nM, 72 hours (FIG. 10), listed as miRIDIAN miR-31 mimic
[18] = myocytes from patients in SR, 20 nM, 48-72 hours

CC(C)C[C@@H](C=O)NC(=O)[C@H](CC(C)C)NC(=O)[C@H](CC(C)C)NC(=O)OCc1ccccc1 [MG132] (Cbz-Leu-Leu-Leu-aldehyde)
nNOS protein content [1]: partially restores nNOS protein; also recorded: partially restored nNOS content

TSB_nNOS: 18-nucleotide-long TSB covering the miR31-binding site on the nNOS 3′UTR (LNA-based, Exiqon) (DNA TGGCAAGAATGAAAAGGC; LNA-based target site blocker, LNA pattern not given here)
dystrophin (DYS) protein content [2, 13]: without affecting
nNOS protein content [3, 13]: partially recovered nNOS protein
nNOS protein content [3, 14]: recovered nNOS
DYS mRNA [4, 13]: without affecting
nNOS mRNA (gene expression) [5, 13]: increased nNOS mRNA
nNOS mRNA (gene expression) [5, 14]: significantly increased
loading of nNOS mRNA on the RISC complex (Ago2 immunoprecipitation) [6]: selectively prevented loading; also recorded: reduction

miR-31 mimic: miRIDIAN miR-31 mimic (Dharmacon) (AGGCAAGATGCTGGCATAGCT; listed as DNA, chemistry not given here)
APD [7, 15]: shortened APD
APD rate-dependent adaptation [7, 15]: abolished the APD rate-dependent adaptation
miR31 levels ([8]; AF, mimic (FIG. 10)): increases mir31 levels
miR31 levels ([8]; SR, mimic 10 nM, 72 hours (FIG. 10)): increases mir31 levels
miR-31 expression ([8]; myocytes from patients in SR): upregulation of miR-31
miR-31 expression ([8]; myocytes from patients with AF): upregulation of miR-31
dystrophin protein ([2]; AF myocytes, mimic (FIG. 10)): reduces
dystrophin (DYS) protein content [2, 16]: reduces
dystrophin (DYS) protein content [2, 17]: reduced
dystrophin (DYS) protein content [2, 18]: dramatically reduced
dystrophin (DYS) protein content [2, 13]: dramatically reduced
nNOS protein ([3]; AF myocytes, mimic (FIG. 10)): reduces
nNOS protein content [3, 16]: reduces
nNOS protein content [3, 17]: reduced
nNOS protein content [3, 18]: dramatically reduced
nNOS protein content [3, 13]: dramatically reduced
DYS mRNA ([4]; AF myocytes, mimic (FIG. 10)): has no effect
DYS mRNA (expression) ([4]; listed as miR31 mimic): has no effect
DYS mRNA (expression) ([4]; listed as miRIDIAN miR-31 mimic): without affecting
nNOS gene expression ([5]; AF myocytes, mimic (FIG. 10)): reduces
nNOS mRNA (gene expression) [5, 16]: reduces
nNOS mRNA (gene expression) [5, 17]: reduced
GFP fluorescence, wild type (WT) Part 2 nNOS 3′UTR construct [9]: reduction in miR31-mediated GFP fluorescence
reduction in GFP fluorescence, mutated (Mut) nNOS 3′UTR constructs lacking miR31 binding site [9]: abolished
GFP fluorescence, wild type (WT) DYS 3′UTR construct [10]: reduction in miR31-mediated GFP fluorescence
reduction in GFP fluorescence, mutated (Mut) DYS 3′UTR constructs lacking miR31 binding site [10]: abolished
decay of nNOS mRNA [11]: accelerated the decay of nNOS mRNA
decay of DYS mRNA [12]: has no effect

Nc1ccncc1 [4-AP]
APD ([7]; RA myocytes from patients in SR, 2 doses of 4-AP (100 and 500)): prolong APD
difference in APD induced by SMTC ([7]; RA myocytes from patients in SR, 4-AP 100 and 500, with or without SMTC): abolish the difference in APD induced by SMTC
APD rate dependent adaptation ([7]; human RA myocytes, 4-AP): restores the APD rate dependent adaptation

CO/C1=C\C(C)=C\[C@@H](C)[C@@H](O)[C@@H](C)C/C(C)=C/C=C/[C@H](OC)[C@@H]([C@@H](C)[C@@H](O)[C@H](C)[C@@]2(O)C[C@@H](O)[C@H](C)[C@@H](C(C)C)O2)OC1=O [bafilomycin A1]
nNOS protein content ([1]; listed as bafilomycin): had no effect

Reference: patent US20160108431A1, “PREVENTION AND TREATMENT OF ATRIAL FIBRILLATION” (ISIS INNOVATION LIMITED, priority 2013, published 2016)
